Results from patent US20260258044A1, “PIPERIDINYL-METHYL-PURINE AMINE FUMARIC ACID SALTS, CRYSTALLINE FORMS, AND THEIR USE IN TREATING MEDICAL DISEASES AND CONDITIONS” (K36 Therapeutics, Inc., priority 2022, published 2026).
Entries after “also recorded” stand apart in the source; their conditions may differ.

Experiments:
Format in all cases: physicochemical
[1] = hygroscopicity by dynamic vapor sorption; settings: transitioned from 2% to 95% relative humidity
Method: Dynamic vapor sorption was performed using a Q5000SA. The sample (5-15 mg) was loaded into a metallic quartz sample pan, suspended from a microbalance, and exposed to a humidified stream of nitrogen gas. Weight changes were relative to a matching empty reference pan opposite the sample, suspended from the microbalance. The sample was held for a minimum of 10 min at each humidity level and only progressed to the next humidity level if there was <0.002% change in weight between measurements (interval: 5 s) or 60 min had elapsed. The following program was used: • 1. Equilibration at 50% RH • 2. 50% to 2% RH (50%, 40%, 30%, 20%, 10%, and 2% RH) • 3. 2% to 95% RH (2%, 10%, 20%, 30%, 40%, 50%, 60%, 70%, 80%, 90%, and 95% RH) • 4. 95% to 2% RH (95%, 80%, 70%, 60%, 50%, 40%, 30%, 20%, 10%, and 2% RH) • 5. 2% to 50% RH (2%, 10%, 20%, 30%, 40%, and 50% RH).

[2] = accelerated stability study (HPLC and XRPD of recovered salts); settings: for HPLC Purity (Area %) After Study / XRPD After Study: after one week at 75% relative humidity, 40° C.; for HPLC Purity (Area %) Before Study: before storage
Method: An accelerated stability study was conducted on crystalline Form 1 (prepared according to Procedure 2 of Example 1), Form 2, Form 3 (prepared according to Procedure 1 of Example 3), and Form 4 of (S)-1-((R)-3-amino-1-(4-((6-amino-9H-purin-9-yl)methyl)-6-(2,5-difluoro-4-methoxyphenyl) pyridin-3-yl)piperidin-3-yl)-2,2-difluoroethan-1-ol fumaric acid salt. Approximately 12 mg of each solid was placed into separate 4-mL vials, and then the vials were covered with a Kimwipe. The vials were stored for one week inside a stability chamber producing a relative humidity of 75% at 40° C.

[3] = water solubility of the crystalline solid; settings: 37° C.

Row | increase in weight [1] | HPLC Purity (Area %) After Study [2] | HPLC Purity (Area %) Before Study [2] | water solubility ([3]; after 30 minutes) | water solubility ([3]; after 24 hours) | increase in weight as molar equivalents of water [1] | SMILES | XRPD After Study [2]
1 | 1.5% | 99.52 Area % | 99.50 Area % | 300 µg/mL | 1400 µg/mL | – | COc1cc(F)c(-c2cc(Cn3cnc4c(N)ncnc43)c(N3CCC[C@](N)([C@H](O)C(F)F)C3)cn2)cc1F.O=C(O)/C=C/C(=O)O [Form 1, (S)-1-((R)-3-amino-1-(4-((6-amino-9H-purin-9-yl)methyl)-6-(2,5-difluoro-4-methoxyphenyl)pyridin-3-yl)piperidin-3-yl)-2,2-difluoroethan-1-ol Fumaric Acid Salt] | No change; also recorded: Unchanged
2 | – | 99.49 Area % | 99.51 Area % | 2200 µg/mL | 1100 µg/mL | – | COc1cc(F)c(-c2cc(Cn3cnc4c(N)ncnc43)c(N3CCC[C@](N)([C@H](O)C(F)F)C3)cn2)cc1F.O=C(O)/C=C/C(=O)O [Form 2, (S)-1-((R)-3-amino-1-(4-((6-amino-9H-purin-9-yl)methyl)-6-(2,5-difluoro-4-methoxyphenyl)pyridin-3-yl)piperidin-3-yl)-2,2-difluoroethan-1-ol Fumaric Acid Salt] | Slight shifting of peaks at higher diffraction angles (2θ); also recorded: Slight Shifting of Certain
3 | 5.1% | 99.56 Area % | 99.58 Area % | 800 µg/mL | 700 µg/mL | approximately 1.8 molar equivalents | COc1cc(F)c(-c2cc(Cn3cnc4c(N)ncnc43)c(N3CCC[C@](N)([C@H](O)C(F)F)C3)cn2)cc1F.O=C(O)/C=C/C(=O)O [Form 3, (S)-1-((R)-3-amino-1-(4-((6-amino-9H-purin-9-yl)methyl)-6-(2,5-difluoro-4-methoxyphenyl)pyridin-3-yl)piperidin-3-yl)-2,2-difluoroethan-1-ol Fumaric Acid Salt] | Increased crystallinity; also recorded: Higher Crystallinity
4 | 5.5% | 99.59 Area % | 99.56 Area % | 700 µg/mL | 600 µg/mL | approximately 2.0 molar equivalents | COc1cc(F)c(-c2cc(Cn3cnc4c(N)ncnc43)c(N3CCC[C@](N)([C@H](O)C(F)F)C3)cn2)cc1F.O=C(O)/C=C/C(=O)O [Form 4, (S)-1-((R)-3-amino-1-(4-((6-amino-9H-purin-9-yl)methyl)-6-(2,5-difluoro-4-methoxyphenyl)pyridin-3-yl)piperidin-3-yl)-2,2-difluoroethan-1-ol Fumaric Acid Salt] | Conversion to Form 3
